This is an account of results in US7410975B2, “Small molecule toll-like receptor (TLR) antagonists” (Coley Pharmaceutical Group, Inc., priority 2003, dated 2008).

Structures are written as SMILES.

The target of the assay is T1, human TLR8 (hTLR8) (Homo sapiens, UniProt Q9NR97).
T1 construct: expressed in transfected cells
T1 sequence (Q9NR97 27-1041): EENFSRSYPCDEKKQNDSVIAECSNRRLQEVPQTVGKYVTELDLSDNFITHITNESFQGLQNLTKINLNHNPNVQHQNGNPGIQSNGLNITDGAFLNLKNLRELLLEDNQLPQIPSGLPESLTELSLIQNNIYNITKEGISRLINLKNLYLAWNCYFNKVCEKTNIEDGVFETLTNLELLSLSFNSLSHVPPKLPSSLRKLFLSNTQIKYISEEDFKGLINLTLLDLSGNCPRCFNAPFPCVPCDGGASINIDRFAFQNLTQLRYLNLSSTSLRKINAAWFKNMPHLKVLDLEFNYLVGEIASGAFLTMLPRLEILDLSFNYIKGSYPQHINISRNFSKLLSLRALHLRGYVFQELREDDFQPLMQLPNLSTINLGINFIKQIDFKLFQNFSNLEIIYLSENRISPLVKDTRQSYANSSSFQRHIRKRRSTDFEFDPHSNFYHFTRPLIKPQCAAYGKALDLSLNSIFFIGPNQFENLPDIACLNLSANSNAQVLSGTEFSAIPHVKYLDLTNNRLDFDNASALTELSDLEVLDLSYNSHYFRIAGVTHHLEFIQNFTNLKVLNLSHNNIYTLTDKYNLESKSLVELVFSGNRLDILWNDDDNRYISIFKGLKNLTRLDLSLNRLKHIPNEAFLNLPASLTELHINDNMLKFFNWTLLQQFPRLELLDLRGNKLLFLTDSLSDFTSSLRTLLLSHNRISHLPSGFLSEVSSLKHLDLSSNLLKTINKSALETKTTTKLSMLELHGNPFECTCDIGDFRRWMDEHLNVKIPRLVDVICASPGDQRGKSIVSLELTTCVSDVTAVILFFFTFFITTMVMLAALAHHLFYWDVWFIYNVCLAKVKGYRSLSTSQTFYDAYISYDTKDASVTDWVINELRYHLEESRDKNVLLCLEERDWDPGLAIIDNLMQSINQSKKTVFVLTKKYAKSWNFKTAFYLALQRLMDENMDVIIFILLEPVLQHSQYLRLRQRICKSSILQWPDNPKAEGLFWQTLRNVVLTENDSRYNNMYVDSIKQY
The assay is described as follows: Antagonist screen, hTLR8-NFκB-293 cells, NF-κB-luciferase reporter, with EC50 of R848. Type of assay: cell-based. Conditions: compound at 0.5, 5, 50 μg/ml; EC50 concentration of R848; 16 h; NF-κB-luciferase. On the procedure:
The method is described in greater detail as follows. The cells for each individual cell clone (hTLR3-NFκB-293, hTLR7-NFκB-293, hTLR8-NFκB-293 and hTLR9-NFκB-293) were counted and seeded one day before the stimulation at 1.5×10^4 cells per well in 96-well cell culture plates. To become adherent the cells were incubated after seeding overnight at 37° C. in 5% CO2 humidified air.
The screen for each compound was performed at the same time for all of the receptors TLR3, TLR7, TLR8 and TLR9. Up to fifteen test compounds, each assayed in duplicate at each of three different final concentrations (0.5 μg/ml, 5 μg/ml, and 50 μg/ml), were used for 16 h cell stimulation on a single multiwell culture plate. A 4× final concentration master plate was created to prepare the different test compounds before they were added to the cells.
Controls were added as duplicates individually for each cell clone on the cell culture plate. Positive controls were used as follows (final concentrations): 50 μg/ml poly(I:C) for hTLR3-NFκB-293; 8 μM resiquimod (R848) for hTLR7-NFκB-293; 30 μM R848 for hTLR8-NFκB-293; and 2.5 μM CpG-ODN 2006 for hTLR9-NFκB-293. Media alone was used as negative control. After addition of controls and small molecules, the cell clones were additionally stimulated with the EC50 concentration of the appropriate receptor-specific ligand.
The mean value of wells H2 and H5 (each with cells and EC50 concentration of the appropriate receptor-specific ligand) divided by the mean of wells H3 and H6 (each with cells alone) yielded the baseline response (i.e., fold induction of luciferase activity) to EC50 concentration of the appropriate receptor-specific ligand.
After 16 h stimulation the supernatant was removed and the cells treated with lysis buffer and stored at −80° C. before measuring.
For each screen result a graphical documentation was performed.
The baseline result (measured with addition of the EC50 concentration of the receptor-specific ligand) for each cell culture plate was measured as described above. Antagonistic effects were measured by down regulation compared to the baseline. Antagonists were scored as follows: • 13: compounds for which there was clear down regulation at 0.5 μg/ml, 5 μg/ml, and 50 μg/ml; • 12: compounds for which there was clear down regulation at 5 μg/ml and 50 μg/ml; • 11: compounds for which there was clear down regulation only at 50 μg/ml; • —: compounds for which there was no clear down regulation even at 50 μg/ml. Agonists
Results were expressed as fold induction over baseline luciferase activity measured in the absence of R848. […] Additional screening was performed in like manner using additional small molecules selected from another library or specifically prepared for this purpose. Scoring is reported as above but as applied to TLR8.
Take `CC1NCCc2c1[nH]c1ccccc21.Cl` (racemic) [compound 619, Eleagnine hydrochloride (R,S)]: the “hTLR8 (inhibitory effect, antagonist score)” value is reported as “— (compounds for which there was no clear down regulation even at 50 μg/ml)”.
For `O=C1c2c(O)cccc2Cc2cccc(O)c21` [compound 43, Anthralin] the value was 12 (compounds for which there was clear down regulation at 5 μg/ml and 50 μg/ml); for `CN(C)CCCN1c2ccccc2Sc2ccc(C(F)(F)F)cc21.Cl` [compound 53, Triflupromazinehydrochloride], 11 (compounds for which there was clear down regulation only at 50 μg/ml); for `CN(C)CCCN1c2ccccc2Sc2ccc(Cl)cc21.Cl` [compound 64, Chlorpromazinehydrochloride], 11 (compounds for which there was clear down regulation only at 50 μg/ml).
The value for `CN(C)CCC=C1c2ccccc2CCc2ccccc21.Cl` [compound 74, Amitryptilinehydrochloride] was “— (compounds for which there was no clear down regulation even at 50 μg/ml)”; that for `OC(c1ccccc1)(c1ccccc1)C1CCNCC1` [compound 93, Azacyclonol] was “— (compounds for which there was no clear down regulation even at 50 μg/ml)”.
The value for `CN1Cc2c(N)cccc2C(c2ccccc2)C1.O=C(O)/C=C\C(=O)O` (stereo not shown) [compound 108, Nomifensine maleate] was “— (compounds for which there was no clear down regulation even at 50 μg/ml)”; that for `C[C@]12N[C@H](Cc3ccccc31)c1ccccc12.O=C(O)/C=C\C(=O)O` [compound 109, Dizocilpine maleate] was “— (compounds for which there was no clear down regulation even at 50 μg/ml)”.
Take `OCCN1CCN(CCCN2c3ccccc3Sc3ccc(Cl)cc32)CC1` [compound 125, Perphenazine]: the “hTLR8 (inhibitory effect, antagonist score)” value is reported as 11 (compounds for which there was clear down regulation only at 50 μg/ml).
For `CN1CCN(CCCN2c3ccccc3Sc3ccc(S(=O)(=O)N(C)C)cc32)CC1.CS(=O)(=O)O.CS(=O)(=O)O` [compound 149, Thioproperasinedimesylate] the value was “— (compounds for which there was no clear down regulation even at 50 μg/ml)”; for `Clc1ccccc1C(c1ccccc1)(c1ccccc1)n1ccnc1` [compound 267, Clotrimazole], 12 (compounds for which there was clear down regulation at 5 μg/ml and 50 μg/ml).
On to `CC(NCCC(c1ccccc1)c1ccccc1)c1ccccc1.Cl` (stereo not shown) [compound 270, Fendiline hydrochloride], for which the “hTLR8 (inhibitory effect, antagonist score)” value was 12 (compounds for which there was clear down regulation at 5 μg/ml and 50 μg/ml).
For `CN1CCC(=C2c3ccccc3Sc3ccccc32)CC1.O=C(O)/C=C\C(=O)O` [compound 294, Pimethixene maleate] the value was 11 (compounds for which there was clear down regulation only at 50 μg/ml); for `O=c1[nH]c2ccccc2n1C1CCN(CCCC(c2ccc(F)cc2)c2ccc(F)cc2)CC1` [compound 308, Pimozide], 11 (compounds for which there was clear down regulation only at 50 μg/ml); for `Cl.Cl.OCCN1CCN(CC/C=C2/c3ccccc3Sc3ccc(C(F)(F)F)cc32)CC1` [compound 340, Flupentixoldihydrochloride cis-(Z)], 11 (compounds for which there was clear down regulation only at 50 μg/ml).
For `CNCCCN1c2ccccc2CCc2ccccc21.Cl` [compound 343, Desipraminehydrochloride] the value was 11 (compounds for which there was clear down regulation only at 50 μg/ml); for `CN(C)CC/C=C1/c2ccccc2Sc2ccc(Cl)cc21.Cl` [compound 348, Chlorprothixenehydrochloride], 11 (compounds for which there was clear down regulation only at 50 μg/ml); for `Cc1cccc(C)c1NC(=O)CN1CCN(CCCC(c2ccc(F)cc2)c2ccc(F)cc2)CC1` [compound 381, Lidoflazine], 11 (compounds for which there was clear down regulation only at 50 μg/ml).
Turning to `Cl.Cl.Fc1ccc(C(OCCN2CCN(CCCc3ccccc3)CC2)c2ccc(F)cc2)cc1` [compound 386, GBR 12909hydrochloride], the “hTLR8 (inhibitory effect, antagonist score)” value is 12 (compounds for which there was clear down regulation at 5 μg/ml and 50 μg/ml).
For `Nc1cccc2c1C(=O)c1cccc(N)c1C2=O` [compound 413, Anthraquinone,1,5-diamino] the value was 11 (compounds for which there was clear down regulation only at 50 μg/ml).
For `CN1CCC2C(C1)c1ccccc1N2Cc1ccccc1` (stereo not shown) [compound 455, Mebhydroline 1,5 naphtalenedisulfonate] the value was “— (compounds for which there was no clear down regulation even at 50 μg/ml)”; for `Cc1cccc(CN2CCN(C(c3ccccc3)c3ccc(Cl)cc3)CC2)c1.Cl.Cl` (stereo not shown) [compound 457, Meclozinedihydrochioride], “— (compounds for which there was no clear down regulation even at 50 μg/ml)”; for `c1ccc2c(c1)[nH]c1cnccc12` [compound 470, norharman], 11 (compounds for which there was clear down regulation only at 50 μg/ml).
For `CN(C)CC/C=C1/c2ccccc2CSc2ccccc21.Cl` [compound 488, Dosulepin hydrochloride] the value was “— (compounds for which there was no clear down regulation even at 50 μg/ml)”; for `CN1CCN(C(c2ccccc2)c2ccccc2)CC1.Cl` [compound 510, Cyclizine hydrochloride], “— (compounds for which there was no clear down regulation even at 50 μg/ml)”.
For `CN1CCCCC1CCN1c2ccccc2Sc2ccc([S+](C)[O-])cc21.O=S(=O)(O)c1ccccc1` (stereo not shown) [compound 529, Mesoridazine besylate], the “hTLR8 (inhibitory effect, antagonist score)” value is “— (compounds for which there was no clear down regulation even at 50 μg/ml)”.
The value for `CCOC(=O)Oc1c(OC)cc(C(=O)O[C@@H]2C[C@@H]3CN4CCc5c([nH]c6cc(OC)ccc56)[C@H]4C[C@@H]3[C@H](C(=O)OC)[C@H]2OC)cc1OC` [compound 564, Syrosingopine] was 12 (compounds for which there was clear down regulation at 5 μg/ml and 50 μg/ml).
In the case of `COC(=O)[C@H]1[C@H]2C[C@@H]3c4[nH]c5cc(OC)ccc5c4CCN3C[C@H]2C[C@@H](OC(=O)/C=C/c2cc(OC)c(OC)c(OC)c2)[C@@H]1OC` [compound 568, Rescinnamin], the “hTLR8 (inhibitory effect, antagonist score)” value is on record as “— (compounds for which there was no clear down regulation even at 50 μg/ml)”.
